The values that follow are results of earlier work, collected in patent publication US20230114993A1 (priority 2019, published 2023).

Each structure is given as a SMILES string.

The test system of this data set is CADASIL. As to conditions: compared to placebo, CADASIL patients.

Turning to `COc1cc2c(cc1OC)C(=O)C(CC1CCN(Cc3ccccc3)CC1)C2` (stereo not shown) [donepezil], the “Treatment effect in cognitive and executive function assessments” value was “failed to show any treatment effect”.
